Tests used:
[1] = test system: human brain 130/110 kDa APP; assay: ^65Zn binding to human brain 130/110 kDa APP (time course, competition, Scatchard)
Excerpt: FIG. 4 is a graphical representation showing a time course analysis of ^65Zn binding to human brain 130/110 kDa APP. Amyloid protein precursor (APP) was purified according to the method in Moir et al. (1992). The preparation of purified 130 and 110 kDa APP was derived from human brain membrane extracts and contained the full-length precursor with carboxyl terminus intact but lacked the 17 residue signal peptide. The 130 and 110 kDa proteins were apparent in equal ratios on silver staining following polyacrylamide gel electrophoresis and were the only bands visible. The identity of these two proteins was confirmed by Western blots with monoclonal antibody 22C11 (which recognises an amino terminal epitope on APP), and by amino terminal sequencing. The protein concentration of the APP preparation was determined by amino acid analysis. Aliquots of APP (90 ng, =1.1 pmole, assuming the average amino acid formula weight of APP is =80 kDa) were incubated at 20° C. for the times indicated. Incubations (50 μl) were performed in 150 mM NaCl, 50 mM Tris-Hcl, pH 7.4 in the presence of 10^6 cpm of ^65Zn (175 nM). The incubation solution was then applied to a 1.1 ml bed volume Sephadex G25 (Pharmacia, Uppsala, Sweden) column pre-equilibrated with 150 mM NaCl, 50 mM Tris-HCl, pH 7.4 and allowed to settle before being desalted with 645 μl of the Equilibration buffer. […] The desalted protein was collected directly into counting tubes containing 10 ml aqueous counting scintillant. Less than two minutes was required to complete the desalting. The amount of ^65Zn bound to desalted APP was determined by counting the collected sample in a beta-counter set to the broadest channel. Counting was determined to be 51% efficient. The values shown are means±SD of n≧3 readings.
FIG. 5 is a graphical representation showing a competition analysis of ^65Zn binding to human brain 130/110 kDa APP. Aliquots of APP were incubated for 30 minutes with ^65Zn as in FIG. 4. The binding of the labelled Zn^2+ to APP was subjected to competition with unlabelled Zn^2+ in the form of the chloride salt. Data shown indicate the competition curves generated at pH 6.4 and 7.4. The binding of Zn^2+ to APP deteriorated at the lower pH (=45% of Bmax, pH 7.4). The values are means±SEM of n≧3 readings. The curves illustrated are typical of three experiments.
FIG. 6 is a graphical representation depicting a Scatchard analysis of ^65Zn binding to human brain 130/110 kDa APP.
Binding analysis was performed as follows: Aliquots of APP (90 ng, =1.1 pmole, assuming the average amino acid formula mass of APP is =80 kDa) were incubated at 20° C. Incubations (50 μl) were performed in 150 mM NaCl, 50 mM Tris-HCl, pH 7.4 in the presence of 10^6 CPM of ^65Zn (175 nM). The incubation solution was then applied to a 1.1 ml bed volume Sephadex G25 (Pharmacia, Uppsala, Sweden) column pre-equilibrated with 150 mM NaCl, 50 mM Tris-HCl, pH 7.4 and allowed to settle before being desalted with 645 μl of the equilibration buffer. […] The deslated protein was collected directly into counting tubes containing 10 ml aqueous counting scintillant (ACSII, Amersham). Less than two minutes was required to complete the desalting. The amount of ^65Zn bound to desalted APP was determined by counting the collected sample in a beta-counter set to the broadest channel. Counting was determined to be 51% efficient. The binding of the labelled Zn^2+ to APP was subjected to competition with unlabelled Zn^2+ and other metal chloride salts.

APP-degrading protease = assay: Assay of APP-degrading protease (Zn^2+-enhanced degradation of plasma 130 kDa APP); assay type: biochemical, human; conditions: heparin-Sepharose eluates, 37° C.
[2] = target: T1, partially purified human brain APP (Homo sapiens, UniProt P05067); assay: partially purified brain APP binding to heparin-Sepharose, NaCl gradient elution
T1 construct: from tissue; host or cells: human brain membrane extract
T1 sequence (P05067 18-770): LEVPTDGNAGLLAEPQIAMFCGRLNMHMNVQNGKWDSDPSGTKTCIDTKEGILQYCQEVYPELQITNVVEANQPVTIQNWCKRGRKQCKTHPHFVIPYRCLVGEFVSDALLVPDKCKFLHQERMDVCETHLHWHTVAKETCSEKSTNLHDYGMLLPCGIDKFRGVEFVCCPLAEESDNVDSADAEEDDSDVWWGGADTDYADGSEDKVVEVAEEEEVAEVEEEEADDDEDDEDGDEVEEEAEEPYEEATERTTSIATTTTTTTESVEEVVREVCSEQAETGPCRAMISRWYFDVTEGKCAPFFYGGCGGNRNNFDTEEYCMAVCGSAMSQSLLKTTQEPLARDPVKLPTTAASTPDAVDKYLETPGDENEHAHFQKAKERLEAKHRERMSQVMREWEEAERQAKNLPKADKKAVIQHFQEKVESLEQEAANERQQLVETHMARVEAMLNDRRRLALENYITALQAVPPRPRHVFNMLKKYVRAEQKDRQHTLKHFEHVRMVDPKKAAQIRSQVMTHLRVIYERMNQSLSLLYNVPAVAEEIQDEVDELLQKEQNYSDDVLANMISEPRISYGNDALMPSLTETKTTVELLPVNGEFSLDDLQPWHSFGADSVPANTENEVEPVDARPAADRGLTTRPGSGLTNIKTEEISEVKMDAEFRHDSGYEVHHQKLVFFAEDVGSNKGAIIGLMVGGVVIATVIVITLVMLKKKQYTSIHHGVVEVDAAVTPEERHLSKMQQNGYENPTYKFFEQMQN
Experimental: APP binding to heparin-Sepharose was also studied using partially purified APP preparations derived from human brain membranes (according to the method of Moir et al, 1992) or from human serum. Washed brain membrane extract or human serum was adjusted to a NaCl concentration of 350 mM and applied to a Q-Sepharose column (5 cm×5 cm), washed with 350 mM NaCl, 50 mM Tris-Hcl, pH 7.4 (250 ml [×2 for brain membrane extract]) and eluted with 1 M NaCl 50 mM Tris-HCl, pH 7.4 (200 ml at 5 ml/min). This procedure causes an 80-fold enrichment of APP in the peak protein fractions, which are then pooled (Moir et al, 1992). The eluate (20 ml) was desalted into 25 mM Tris, pH 7.4 (30 ml) using a G25 Sephadex column (2.6 cm×40 cm). 15 ml of the product was adjusted to 50 μM Zn^2+ with 2 mM ZnCl2, 50 mM Tris-Hcl, pH 7.4 and the other 15 ml was adjusted to the same volume with 50 mM Tris-HCl, pH 7.4. 10 ml of the deslated Q-Sepharose eluate, containing 6.7 mg protein, was applied to heparin-Sepharose (1.6 cm×5 cm) at 0.35 ml/min, washed with 100 ml of loading buffer, and eluted by a 0 to 1500 mM NaCl gradient (±50 μM Zn^2+) in 52.5 ml at a flow rate of 0.35 ml/min. Fractions (1 ml) representing 20 mM NaCl increments were collected and 30 μl samples of each fraction were assayed for APP by Western blot with mAb 22C11 according to the method in Bush et al. (1990), modified by using PVDF membranes and by reducing the blocking time to 1 hour. The immunoreactive staining of the 130 kDa APP species seen on the blots was quantified by computer-assisted image capture reflectance densitometry (Bush et al., 1992). The 130 kDa reflectance signals on the blots were expressed as the ratio of the signal generated in one sample lane related to the 130 kDa APP reflectance reading of a sample of starting material present on every individual filter as an internal standard.

[3] = target: T2, APP purified from rat brain (Rattus norvegicus, UniProt P08592); assay: heparin binding to APP in a Biosensor system
T2 construct: from tissue; host or cells: rat brain
T2 sequence (P08592 18-770): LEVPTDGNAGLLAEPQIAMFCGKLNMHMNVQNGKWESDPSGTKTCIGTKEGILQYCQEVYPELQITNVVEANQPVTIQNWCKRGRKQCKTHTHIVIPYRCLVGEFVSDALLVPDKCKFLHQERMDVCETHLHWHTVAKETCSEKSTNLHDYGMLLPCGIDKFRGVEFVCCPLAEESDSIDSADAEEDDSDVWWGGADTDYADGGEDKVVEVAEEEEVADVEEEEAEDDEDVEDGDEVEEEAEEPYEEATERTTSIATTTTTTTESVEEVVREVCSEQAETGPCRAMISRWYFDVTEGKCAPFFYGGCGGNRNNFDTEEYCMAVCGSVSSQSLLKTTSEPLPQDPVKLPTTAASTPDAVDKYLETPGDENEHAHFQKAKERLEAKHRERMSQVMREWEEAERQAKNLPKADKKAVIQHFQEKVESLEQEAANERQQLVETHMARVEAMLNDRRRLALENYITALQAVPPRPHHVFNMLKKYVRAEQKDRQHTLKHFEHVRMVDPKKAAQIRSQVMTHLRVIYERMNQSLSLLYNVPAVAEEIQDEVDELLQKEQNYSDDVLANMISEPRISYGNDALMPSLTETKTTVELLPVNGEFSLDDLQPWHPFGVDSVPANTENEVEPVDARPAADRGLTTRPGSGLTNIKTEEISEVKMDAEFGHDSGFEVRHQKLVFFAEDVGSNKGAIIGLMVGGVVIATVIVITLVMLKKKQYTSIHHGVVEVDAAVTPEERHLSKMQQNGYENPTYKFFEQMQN
Experimental: The effect of Zn^2+ in modulating heparin binding to APP was also studied in a Biosensor system. […] This effect was most pronounced and most specific for Zn^2+, as opposed to the absence of divalent cations or the presence of Ca^2+, Mg^2+ or Co^2+, and was most evident when the heparin:APP ratio was low. […] Zn^2+ at 50 nM promoted a =170% increase in heparin binding, the effect saturating at 70 μM.

trypsin = assay: tryptic activity on fluorogenic substrate Z-F-R-AMC; assay type: biochemical; conditions: range of doses

[Cl-].[Cl-].[Zn+2] [Zn^2+, ZnCl2]
Zn bound to APP, % of Bmax ([1]; at 1 minute): 30% | Zn bound to APP, % of Bmax ([1]; at 5 minutes): 30% | binding of Zn^2+ to APP at the lower pH, % of Bmax at pH 7.4 ([1]; pH 6.4): 45% | ^65Zn label competed off APP (of Bmax) ([1]; unlabelled metal ion at 20 μM): > 97% | effect on proteolysis of plasma APP (APP-degrading protease): Proteolysis was accelerated | increase in amount of APP recovered in all fractions ([2]; 50 μM Zn^2+): 48% | amount of APP recovered in all fractions ([2]; 50 μM Zn^2+ (1110 without)): 1644 reflectance units | reduction in amount of eluted protein ([2]; 50 μM Zn^2+, protein assay): 13% | concentration at which effect on heparin binding saturates [3]: 70 µM | effect on heparin binding to APP ([3]; 100 μM): strongly promote heparin binding to APP | increase in heparin binding to rat brain APP ([3]; Zn^2+ at 50 nM): 170% | effect on tryptic activity (trypsin): left tryptic activity unaltered

From patent US20040265847A1, “Method for treating Alzheimer's disease” (priority 1991, published 2004)
